What was measured:
[1] = biological target: T1, Adenosine receptor A2b (Homo sapiens) (UniProt P29275); assay: Inhibition of luciferase production elicited by NECA by compound in CHO cells transfected with human adenosine A2b receptor and a luciferase expressing reporter plasmid in a reporter gene assay; format: cell-based
T1 sequence (whole entry): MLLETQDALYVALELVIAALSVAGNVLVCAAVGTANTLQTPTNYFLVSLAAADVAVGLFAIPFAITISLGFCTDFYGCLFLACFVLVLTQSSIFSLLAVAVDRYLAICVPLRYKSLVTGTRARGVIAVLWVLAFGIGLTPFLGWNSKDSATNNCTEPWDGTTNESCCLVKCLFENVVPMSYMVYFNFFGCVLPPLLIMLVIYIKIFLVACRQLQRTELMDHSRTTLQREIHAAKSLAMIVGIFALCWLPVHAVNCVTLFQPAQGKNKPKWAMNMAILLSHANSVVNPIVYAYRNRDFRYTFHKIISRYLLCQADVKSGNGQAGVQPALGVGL

Adenosine receptor A3 = biological target: T2, Adenosine receptor A3 (Homo sapiens, UniProt P0DMS8); assay: Displacement of [125I]-AB-MECA from human adenosine A3 receptors transfected in CHO cells; format: cell-based
T2 sequence (P0DMS8 whole entry): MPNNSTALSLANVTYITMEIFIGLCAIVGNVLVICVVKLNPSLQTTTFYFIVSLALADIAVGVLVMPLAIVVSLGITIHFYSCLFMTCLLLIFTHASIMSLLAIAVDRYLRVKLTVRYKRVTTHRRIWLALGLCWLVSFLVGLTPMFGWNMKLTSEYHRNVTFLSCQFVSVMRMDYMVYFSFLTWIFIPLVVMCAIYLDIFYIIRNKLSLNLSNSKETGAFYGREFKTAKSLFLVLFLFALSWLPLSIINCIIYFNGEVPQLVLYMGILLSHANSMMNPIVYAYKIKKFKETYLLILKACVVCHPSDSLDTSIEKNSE

Adenosine receptor A2a = Adenosine receptor A2a (Homo sapiens, UniProt P29274); assay: Displacement of [3H]ZM-241,385 from human adenosine A2a receptors transfected in HEK 293 cells; format: cell-based, HEK293
Sequence of Adenosine receptor A2a (P29274 whole entry): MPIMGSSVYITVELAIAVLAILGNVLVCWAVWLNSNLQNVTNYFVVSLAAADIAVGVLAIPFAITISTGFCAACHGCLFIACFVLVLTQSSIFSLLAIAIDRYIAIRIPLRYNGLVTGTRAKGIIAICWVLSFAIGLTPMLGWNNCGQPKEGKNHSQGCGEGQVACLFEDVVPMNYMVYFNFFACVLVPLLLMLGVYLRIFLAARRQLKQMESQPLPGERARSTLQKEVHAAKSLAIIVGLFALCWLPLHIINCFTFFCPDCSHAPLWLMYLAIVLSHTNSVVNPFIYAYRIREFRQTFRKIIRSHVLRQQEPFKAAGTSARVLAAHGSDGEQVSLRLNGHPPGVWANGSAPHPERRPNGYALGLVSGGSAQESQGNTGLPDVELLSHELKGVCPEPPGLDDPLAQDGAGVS

Adenosine receptor A1 = biological target: T3, Adenosine receptor A1 (Homo sapiens, UniProt P30542); assay: Displacement of [3H]DPCPX from human adenosine A1 receptors transfected in CHO cells; format: cell-based
T3 sequence (P30542 whole entry): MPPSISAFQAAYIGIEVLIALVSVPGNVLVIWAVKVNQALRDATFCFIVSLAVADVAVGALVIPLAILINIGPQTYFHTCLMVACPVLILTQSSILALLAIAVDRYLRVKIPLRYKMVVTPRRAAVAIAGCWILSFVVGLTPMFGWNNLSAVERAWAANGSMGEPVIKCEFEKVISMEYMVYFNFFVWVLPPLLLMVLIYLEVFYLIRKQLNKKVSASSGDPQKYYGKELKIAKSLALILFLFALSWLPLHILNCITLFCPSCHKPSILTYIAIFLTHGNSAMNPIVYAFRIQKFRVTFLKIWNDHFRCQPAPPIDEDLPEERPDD

[2] = Clearance in wistar rat was determined by intra venous administration of 2:1 PEG200/0.1 M phosphate buffer at 0.1 mL/kg concentration; format: ADME, organism-based; settings: in vivo, iv
[3] = Volume abserved at study state after intra venous administration of 2:1 PEG200/0.1 M phosphate buffer at 0.1 mL/kg concentration in wistar rat; format: ADME, organism-based; settings: in vivo, iv, read-out: Vss
[4] = Time to reach Cmax after oral administration at 1 mL/kg concentration in wistar rat; format: ADME, organism-based; settings: in vivo
[5] = Bioavailability of compound after oral administration at 1 mL/kg concentration in wistar rat; format: ADME, organism-based; settings: in vivo, read-out: BAV
[6] = Half life of trhe compound after oral administration at 1 mL/kg concentration in wistar rat; format: ADME, organism-based; settings: in vivo
[7] = Half life in wistar rat was determined by intra venous administration of 2:1 PEG200/0.1 M phosphate buffer at 0.1 mL/kg concentration; format: ADME; settings: in vivo, iv
[8] = Maximum concentration in wistar rat at 1 mL/kg concentration of compound after oral administration; format: ADME, organism-based; design: dose 1 mL/kg, route oral; settings: in vivo

Molecule `N#Cc1cccc(-c2nc(Nc3ccccn3)sc2-n2cncn2)c1` has a Kb [1] of 53 nM, a Ki (Adenosine receptor A3) of 24 nM and a Ki (Adenosine receptor A2a) of 2020 nM. It also gave a Ki (Adenosine receptor A1) of 1760 nM.
In the case of `CC(=O)Nc1nc(-c2cccc(C#N)c2)c(-n2cncn2)s1`, the Kb [1] is reported as 365 nM, the Ki (Adenosine receptor A3) is reported as 134 nM and the Ki (Adenosine receptor A2a) is reported as 5610 nM. It also gave a Ki (Adenosine receptor A1) of 2840 nM.
`N#Cc1cccc(-c2nc(Nc3cnccn3)sc2-n2cncn2)c1` showed a Kb [1] of 12 nM, a Ki (Adenosine receptor A2a) of 3580 nM and a Ki (Adenosine receptor A1) of 2090 nM.
In the case of `N#Cc1cccc(-c2nc(Nc3cccnc3)sc2-n2cncn2)c1`, the Kb [1] is reported as 86 nM, the Ki (Adenosine receptor A3) is reported as 698 nM and the Ki (Adenosine receptor A2a) is reported as 2570 nM. The Ki (Adenosine receptor A1) was 1530 nM.
Molecule `N#Cc1cccc(-c2nc(Nc3cnccn3)sc2-n2ccnc2)c1` has a Kb [1] of 7 nM, a Ki (Adenosine receptor A3) of 11 nM and a Ki (Adenosine receptor A2a) of 349 nM. It also gave a Ki (Adenosine receptor A1) of 46 nM.
For `Cc1cccc(Nc2nc(-c3cccc(C#N)c3)c(-n3ccnc3C)s2)n1`, the Kb [1] was 10 nM, the Ki (Adenosine receptor A3) was 419 nM and the Ki (Adenosine receptor A2a) was 175 nM. It also gave a Ki (Adenosine receptor A1) of 224 nM.
In the case of `Cc1nccn1-c1sc(Nc2cnccn2)nc1-c1cccc(C#N)c1`, the Kb [1] is reported as 3 nM, the clearance [2] is reported as 94.4 mL/min/kg and the Ki (Adenosine receptor A3) is reported as 10 nM. The Ki (Adenosine receptor A2a) was 1670 nM, the Vd [3] was 3.02 L/kg and the Tmax [4] was 39.3 min. It also gave a bioavailability [5] of 30.2%, a half-life [6] of 191 min and a half-life [7] of 29 min. It also gave a Ki (Adenosine receptor A1) of 197 nM and a Cmax [8] of 560 nM.
With `N#Cc1cccc(-c2nc(Nc3ccncc3)sc2-n2cncn2)c1` the Kb [1] was 62 nM, the Ki (Adenosine receptor A3) was 304 nM and the Ki (Adenosine receptor A2a) was 4160 nM.
For `Cc1cccc(Nc2nc(-c3cccc(C#N)c3)c(-n3cncn3)s2)n1`, the Kb [1] was 20 nM, the Ki (Adenosine receptor A3) was 37 nM and the Ki (Adenosine receptor A2a) was greater than 10000 nM. The Ki (Adenosine receptor A1) was greater than 10000 nM.
With `N#Cc1cccc(-c2nc(Nc3cccnc3)sc2-n2ccnc2)c1` the Kb [1] was 92 nM, the Ki (Adenosine receptor A3) was 124 nM and the Ki (Adenosine receptor A2a) was 2700 nM. It also gave a Ki (Adenosine receptor A1) of 560 nM.
Work on `Cc1cccc(Nc2nc(-c3cccc(C#N)c3)c(-n3ccnc3)s2)n1` yielded a Kb [1] of 92 nM, a Ki (Adenosine receptor A3) of 44 nM and a Ki (Adenosine receptor A2a) of 2700 nM. It also gave a Ki (Adenosine receptor A1) of 8 nM.

Source: ChEMBL document CHEMBL1139627, “A new orally bioavailable dual adenosine A2B/A3 receptor antagonist with therapeutic potential” (Bioorg Med Chem Lett, 2005)
